Laboratory results from the supplement of paper PMC10307832.

What was measured:
Assay in all cases: relative viability (nuclei count vs DMSO), 5 days (fraction); higher = more cells survive
[1] = compound: C1=CC2=C(C=C(C(=C2N=C1)O)N=NC3=CC4=C(C=C3)C=C(C=C4)S(=O)(=O)O)S(=O)(=O)O + Cc1nc(Nc2ncc(C(=O)Nc3c(C)cccc3Cl)s2)cc(N2CCN(CCO)CC2)n1 [Dasatinib] (partner 0.075 µM)
Summary of the method: (§1)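 Nuclei were stained with Hoechst during a one-step fixation (final 0.05% Triton X-100, 1% formaldehyde, 1 ug/ml Hoechst) carried out 5 days after dosing, then counted on 4× images. The cells, lung cancer lines in 1536-well plates, had been dosed by pin tool the day after seeding with one drug alone or a fixed anchor-drug dose plus five library-drug doses (not always all listed) in √10 steps. Relative viability is the nuclei count in treated wells divided by that in vehicle wells, and each value is the median of duplicate plates.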

AT-7519 + Crizotinib = compound: O=C(NC1CCNCC1)c1n[nH]cc1NC(=O)c1c(Cl)cccc1Cl [AT-7519] + C[C@@H](Oc1cc(-c2cnn(C3CCNCC3)c2)cnc1N)c1c(Cl)ccc(F)c1Cl [Crizotinib] (partner 1 µM)
Summary of the method: as §1

AT-7519 + Foretinib = compound: O=C(NC1CCNCC1)c1n[nH]cc1NC(=O)c1c(Cl)cccc1Cl [AT-7519] + COc1cc2c(Oc3ccc(NC(=O)C4(C(=O)Nc5ccc(F)cc5)CC4)cc3F)ccnc2cc1OCCCN1CCOCC1 [Foretinib] (partner 0.25 µM)
Summary of the method: as §1

[2] = compound: C1=CC2=C(C=C(C(=C2N=C1)O)N=NC3=CC4=C(C=C3)C=C(C=C4)S(=O)(=O)O)S(=O)(=O)O + Cc1nc(NC(=O)N2CCC[C@H]2C(N)=O)sc1-c1ccnc(C(C)(C)C(F)(F)F)c1 [Alpelisib] (partner 2 µM)
Summary of the method: as §1

| Cell Line | relative viability ([1]; first compound 0.08 µM) | relative viability ([1]; first compound 0.253 µM) | relative viability ([1]; first compound 0.8 µM) | relative viability ([1]; first compound 2.53 µM) | relative viability ([1]; first compound 8 µM) | relative viability (AT-7519 + Crizotinib; first compound 0.01 µM) | relative viability (AT-7519 + Crizotinib; first compound 0.03162 µM) | relative viability (AT-7519 + Crizotinib; first compound 0.3162 µM) | relative viability (AT-7519 + Crizotinib; first compound 1 µM) | relative viability (AT-7519 + Foretinib; first compound 0.01 µM) | relative viability (AT-7519 + Foretinib; first compound 0.03162 µM) | relative viability (AT-7519 + Foretinib; first compound 0.3162 µM) | relative viability (AT-7519 + Foretinib; first compound 1 µM) | relative viability ([2]; first compound 0.08 µM) | relative viability ([2]; first compound 0.253 µM) | relative viability ([2]; first compound 0.8 µM) | relative viability ([2]; first compound 2.53 µM) | relative viability ([2]; first compound 8 µM) |
| --- | --- | --- | --- | --- | --- | --- | --- | --- | --- | --- | --- | --- | --- | --- | --- | --- | --- | --- |
| HCC-366 | 0.765 | 0.661 | 0.654 | 0.649 | 0.637 | 0.463 | 0.668 | 0.457 | 0.179 | 0.994 | 0.896 | 0.941 | 0.717 | 0.386 | 0.344 | 0.389 | 0.401 | 0.439 |
| HCC-827 | 0.306 | 0.294 | 0.244 | 0.261 | 0.272 | 0.895 | 0.945 | 0.862 | 0.855 | 1.03 | 0.991 | 1.03 | 0.964 | 1.05 | 0.989 | 0.807 | 0.978 | 1.05 |
| HOP-62 | 0.69 | 0.657 | 0.676 | 0.588 | 0.653 | 0.893 | 0.966 | 0.675 | 0.889 | 1.11 | 1.16 | 1.04 | 0.977 | 1.27 | 1.14 | 1.19 | 0.817 | 0.704 |
| IA-LM | – | – | – | – | – | 1.02 | 1.03 | 0.573 | 0.0695 | 1.25 | 1.53 | 1.08 | 0.918 | 0.85 | 0.561 | 0.751 | 0.965 | 0.832 |
| LC-2-ad | 0.799 | 0.593 | 0.555 | 0.548 | 0.687 | 0.465 | 0.467 | 0.499 | 0.234 | 0.975 | 0.984 | 0.85 | 0.452 | 0.619 | 0.783 | 0.828 | 0.857 | 0.98 |
| LCLC-97TM1 | 0.705 | 0.842 | 0.691 | 0.779 | 0.865 | 0.334 | 0.254 | 0.328 | 0.191 | 0.859 | 0.946 | 0.817 | 0.437 | – | 0.296 | – | 0.248 | 0.296 |
| LCLC-103H | 0.537 | 0.461 | 0.505 | 0.458 | 0.48 | 1.05 | 1.08 | 0.999 | 1.27 | 0.773 | 0.704 | 0.879 | 0.677 | 1 | 0.948 | 0.945 | 0.899 | 1.14 |
| LK-2 | 0.357 | 0.33 | 0.204 | 0.33 | 0.239 | 0.229 | 0.235 | 0.251 | 0.227 | 1.04 | 1.16 | – | 0.95 | 1.12 | 1.1 | 1.12 | 1.08 | 0.935 |
| LOU-NH91 | 0.579 | 0.585 | 0.53 | 0.597 | 0.508 | 0.73 | 0.742 | 0.766 | 0.711 | 0.876 | 0.943 | 0.976 | 0.821 | 0.783 | 0.744 | 0.703 | 0.761 | 0.675 |
| LU99A | 0.496 | 0.496 | 0.474 | 0.555 | 0.514 | 0.579 | 0.539 | 0.517 | 0.357 | 0.873 | 0.771 | 0.801 | 0.556 | 0.608 | 0.488 | 0.422 | 0.582 | 0.514 |
| LXF-289 | 0.196 | 0.215 | 0.205 | 0.208 | 0.229 | 0.838 | 0.898 | 0.811 | 0.816 | 0.964 | 1 | 0.943 | 0.877 | 1.13 | 1.01 | 1.02 | 1.08 | 0.976 |
| NCI-H23 | 0.922 | 0.877 | 0.702 | 0.95 | 0.927 | 0.544 | 0.446 | 0.543 | 0.318 | 0.928 | 0.981 | 0.887 | 0.461 | 0.753 | 0.676 | 0.614 | 0.705 | 0.807 |
| NCI-H522 | 0.91 | 0.92 | 0.746 | 0.788 | 1.03 | – | – | – | – | – | – | – | – | – | – | – | – | – |
| NCI-H1299 | – | – | – | – | – | 1.03 | 0.997 | 0.947 | 0.31 | 1.13 | 1.06 | 1.1 | 1.15 | 0.985 | 1.04 | 1.01 | 0.997 | 1.05 |
| NCI-H1395 | 0.386 | 0.433 | 0.45 | 0.397 | 0.43 | – | – | – | – | 0.991 | 1.12 | 0.961 | 0.786 | 1.08 | 1.21 | 1.09 | 1.06 | 1.23 |
| NCI-H1623 | 0.465 | 0.519 | 0.575 | 0.547 | 0.251 | – | – | – | – | 0.86 | 0.834 | 0.997 | 0.711 | – | – | – | – | – |
| NCI-H1650 | 0.34 | 0.315 | 0.338 | 0.332 | 0.227 | 1.26 | 0.956 | 0.576 | 0.169 | 1.15 | 1.12 | 0.914 | 0.295 | – | – | – | – | – |
| NCI-H1703 | – | – | – | – | – | 0.585 | 0.59 | 0.508 | 0.0921 | 0.335 | 0.317 | 0.353 | 0.331 | 0.369 | 0.266 | 0.39 | 0.385 | 0.409 |
| NCI-H1792 | 0.772 | 0.669 | 0.458 | 0.84 | 0.835 | 0.548 | 0.916 | 0.904 | 1.09 | – | – | – | – | 0.861 | 0.639 | 0.66 | 0.715 | 0.743 |
| NCI-H1793 | 0.372 | 0.403 | 0.364 | 0.367 | 0.372 | – | – | – | – | 0.679 | 0.646 | 0.726 | 0.488 | 0.871 | 0.706 | – | 0.858 | 0.652 |
| NCI-H2342 | 0.297 | 0.307 | 0.286 | 0.308 | 0.348 | – | – | – | – | 1.02 | 0.972 | 0.977 | 0.965 | – | – | – | – | – |
| SW 900 | 0.596 | 0.668 | 0.619 | 0.52 | 0.743 | – | – | – | – | 0.792 | 0.68 | 0.858 | 0.442 | – | – | – | – | – |
